Source: patent EP4603105A1, “PHARMACEUTICAL COMPOSITION CONTAINING CYCLIC COMPOUND HAVING SELECTIVE KRAS INHIBITORY EFFECT AGAINST HRAS AND NRAS” (CHUGAI SEIYAKU KABUSHIKI KAISHA, priority 2022, dated 2024)
Read-outs that look alike come from different tables or passages of the source. *1 amine or outer side, *2 acyl side, *3 side chain or, on linkers, in order; H or OH if unused. Where a SMILES comes first, the peptide text is derived from it. Bridges are numbered along the chain shown (N, C = ends). [ ]: non-standard residue; d: D form. The star is where a group is joined. hPhe(3-Cl-4-CF3) = N[C@@H](CCc1ccc(C(F)(F)F)c(Cl)c1)C(=O)O; NPrPhe(4-CF3) = CCCN[C@@H](Cc1ccc(C(F)(F)F)cc1)C(=O)O; X21 = CCCN([C@H](C(=O)[*:2])C1CCCC1)[*:1]; NMeGly(cPent) = CN[C@H](C(=O)O)C1CCCC1; Ac4c(3,3-Me2) = CC1(C)CC(N)(C(=O)O)C1; Gly(cBu) = N[C@H](C(=O)O)C1CCC1; NMeD = CN[C@@H](CC(=O)O)C(=O)O; NMeL = CN[C@@H](CC(C)C)C(=O)O; Morpholide = C1CN(*)CCO1; NMeA = CN[C@@H](C)C(=O)O; Ac5c = NC1(C(=O)O)CCCC1; Aze = O=C(O)[C@@H]1CCN1; Sar = CNCC(=O)O; Propyl = CCC*

Key:
[1] = target: HRAS wild-type protein (Homo sapiens, UniProt P01112); assay: Binding to HRAS by surface plasmon resonance (SPR), KD and KD ratio to KRAS
Summary of the method: (§1)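 GDP-bound biotin-Avi RAS captured at ~100–300 RU, 30°C, pH 7.4 HBS containing 10 µM GDP, 10 mM MgCl2, 1 mM DTT, 0.01% Tween 20 and 4% DMSO. KD by 1:1 fitting.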

[2] = test system: human lung cancer strain NCI-H441; format: cell-based
Summary of the method: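 Readout: […] after the ATP-based reagent. Compound: serial dilutions in dimethyl sulfoxide.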

[3] = target: GDP-bound NRAS wild-type protein (Homo sapiens, UniProt P01111); assay: Binding to NRAS by surface plasmon resonance (SPR), KD and KD ratio to KRAS
Summary of the method: as §1

[4] = ratio of KD for HRAS wild-type protein to KD for KRAS
[5] = ratio of KD for GDP-bound NRAS wild-type protein to KD for KRAS
[6] = ratio of the KD value with respect to HRAS wild-type protein to the KD value with respect to KRAS
[7] = ratio of the KD value with respect to GDP-bound NRAS wild-type protein to the KD value with respect to KRAS

Sequence of GDP-bound NRAS wild-type protein (P01111 whole entry): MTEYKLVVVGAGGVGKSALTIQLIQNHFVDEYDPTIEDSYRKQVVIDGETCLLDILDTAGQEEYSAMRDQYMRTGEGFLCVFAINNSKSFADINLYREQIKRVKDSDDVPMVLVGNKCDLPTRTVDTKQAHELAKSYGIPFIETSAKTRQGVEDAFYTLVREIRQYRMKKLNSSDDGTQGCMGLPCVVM
Sequence of HRAS wild-type protein (P01112 whole entry): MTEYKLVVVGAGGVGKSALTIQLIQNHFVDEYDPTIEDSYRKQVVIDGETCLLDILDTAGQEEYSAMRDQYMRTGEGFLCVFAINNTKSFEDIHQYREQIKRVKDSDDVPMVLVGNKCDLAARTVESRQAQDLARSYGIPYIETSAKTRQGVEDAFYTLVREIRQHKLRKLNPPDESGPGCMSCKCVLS

Compound	IC50 [2]	HRAS /KRAS [1, 4]	NRAS /KRAS [3, 5]	HRAS /KRAS [1, 6]	NRAS /KRAS [3, 7]	HRAS /KRAS ([1]; ratio of KD with respect to HRAS wild-type protein to KD with respect to KRAS)	NRAS /KRAS ([3]; ratio of KD with respect to GDP-bound NRAS wild-type protein to KD with respect to KRAS)	IC50 ([2]; NCI-H441 cells, 4 days, CellTiter-Glo, read-out: NCl-H441 IC50)
CCCN1C(=O)CN(C)C(=O)CN(C)C(=O)[C@H](C2CCC2)NC(=O)[C@H](CC(C)C)N(C)C(=O)C[C@@H](C(=O)N2CCOCC2)N(C)C(=O)[C@H](C2CCCC2)N(C)C(=O)C2(CCCC2)NC(=O)[C@@H]2CCCN2C(=O)[C@H](CCc2ccc(C(F)(F)F)c(Cl)c2)NC(=O)CN(C)C(=O)[C@@H]1Cc1ccc(C(F)(F)F)cc1 [PP0250] ([NMeL][Gly(cBu)][Sar][Sar][NPrPhe(4-CF3)][Sar][hPhe(3-Cl-4-CF3)]P[Ac5c][NMeGly(cPent)][NMeD]-Morpholide; lactam N-11)	6.7 nM	C (A compound having a KD ratio of 0.1 or more and less than 3 is denoted as C)	B (a compound having 3 or more and less than 10 is denoted as B)	–	–	–	–	–
CCC(CC)[C@H]1C(=O)N(C)[C@H](C(=O)N(C)C)CC(=O)N(C)[C@@H](COC)C(=O)N[C@@H]([C@@H](C)CC)C(=O)N(C)CC(=O)N(C)[C@H]2C/C=C\CCN(C2=O)[C@@H](Cc2ccc(C)cc2)C(=O)N(C)CC(=O)N[C@@H](CCc2cc(F)c(C(F)(F)F)c(F)c2)C(=O)N2CC3(CC3)C[C@H]2C(=O)NC2(CC(C)(C)C2)C(=O)N1C [PP2963]	13.4 nM	A (a compound having 10 or more and less than 20 is denoted as A)	AA (a compound having 20 or more is denoted as AA)	–	–	–	–	–
CCCO[C@H](C)[C@@H]1NC(=O)[C@H](CC(C)C)N(C)C(=O)C[C@@H](C(=O)N2CCOCC2)N(C)C(=O)[C@H](C2CCCC2)N(C)C(=O)C2(CC(C)(C)C2)NC(=O)[C@@H]2CCCN2C(=O)[C@H](CCc2ccc(C(F)(F)F)c(Cl)c2)NC(=O)CN(C)C(=O)[C@H](Cc2ccc(C(F)(F)F)cc2)N(CCC)C(=O)CN(C)C(=O)CN(C)C1=O [PP1965] ([NMeL]T(Propyl)[Sar][Sar][NPrPhe(4-CF3)][Sar][hPhe(3-Cl-4-CF3)]P[Ac4c(3,3-Me2)][NMeGly(cPent)][NMeD]-Morpholide; lactam N-11)	17.4 nM	–	–	B (a compound having 3 or more and less than 10 is denoted as B)	B (a compound having 3 or more and less than 10 is denoted as B)	–	–	–
CCCN1C(=O)[C@@H]2CCN2C(=O)[C@H](C)N(C)C(=O)[C@H]([C@@H](C)CC)NC(=O)[C@H](CC(C)C)N(C)C(=O)C[C@@H](C(=O)N2CCOCC2)N(C)C(=O)[C@H](C2CCCC2)N(C)C(=O)C2(CCCC2)NC(=O)[C@@H]2CCCN2C(=O)[C@H](CCc2ccc(C(F)(F)F)c(Cl)c2)NC(=O)CN(C)C(=O)[C@@H]1C1CCCC1 [PP0054] ([NMeL]I[NMeA][Aze][X21][Sar][hPhe(3-Cl-4-CF3)]P[Ac5c][NMeGly(cPent)][NMeD]-Morpholide; lactam N-11)	–	C (A compound having a KD ratio of 0.1 or more and less than 3 is denoted as C)	C (A compound having a KD ratio of 0.1 or more and less than 3 is denoted as C)	–	–	–	–	82 nM
CCO[C@@H]1C[C@H]2C(=O)NC3(CCC3)C(=O)N(C)[C@@H](C3CCCC3)C(=O)N(CC)[C@H](C(=O)N3CCOCC3)CC(=O)N(C)[C@@H](COC)C(=O)N[C@@H]([C@@H](C)CC)C(=O)N(C)CC(=O)N(C)[C@H]3CCCCCN(C3=O)[C@@H](Cc3ccc(C(F)(F)F)cc3)C(=O)N(C)CC(=O)N[C@@H](CCc3cc(F)c(C(F)(F)F)c(F)c3)C(=O)N2C1 [PP0946]	378 nM	B (a compound having 3 or more and less than 10 is denoted as B)	A (a compound having 10 or more and less than 20 is denoted as A)	–	–	–	–	–

More lines, main results first:

IC50 [2]	Compound	HRAS /KRAS [1, 4]	NRAS /KRAS [3, 5]	HRAS /KRAS [1, 6]	NRAS /KRAS [3, 7]	HRAS /KRAS ([1]; ratio of KD with respect to HRAS wild-type protein to KD with respect to KRAS)	NRAS /KRAS ([3]; ratio of KD with respect to GDP-bound NRAS wild-type protein to KD with respect to KRAS)	IC50 ([2]; NCI-H441 cells, 4 days, CellTiter-Glo, read-out: NCl-H441 IC50)
797 nM	CCO[C@@H]1C[C@H]2C(=O)NC3(CCC3)C(=O)N(C)[C@@H](C3CCCC3)C(=O)N(CCC3CCCC3)[C@H](C(=O)N3CCOCC3)CC(=O)N(C)[C@@H](CC)C(=O)N[C@@H]([C@@H](C)CC)C(=O)N(C)CC(=O)N(C)[C@H]3C/C=C\CCN(C3=O)[C@@H](Cc3ccc(C(F)(F)F)cc3)C(=O)N(C)CC(=O)N[C@@H](CCc3cc(F)c(C(F)(F)F)c(F)c3)C(=O)N2C1 [PP0981]	A (a compound having 10 or more and less than 20 is denoted as A)	AA (a compound having 20 or more is denoted as AA)	–	–	–	–	–
968 nM	CCO[C@@H]1C[C@H]2C(=O)NC3(CCC3)C(=O)N(C)[C@@H](C3CCCC3)C(=O)N(C)[C@H](C(=O)N(C)C)CC(=O)N(C)[C@@H](CC)C(=O)N[C@@H]([C@@H](C)CC)C(=O)N(C)CC(=O)N(C)[C@H]3CC/C=C(/C)CN(C3=O)[C@@H](Cc3ccc(C(F)(F)F)cc3)C(=O)N(C)CC(=O)N[C@@H](CCc3cc(F)c(C(F)(F)F)c(F)c3)C(=O)N2C1 [PP1334]	–	–	–	–	B (a compound having 3 or more and less than 10 is denoted as B)	B (a compound having 3 or more and less than 10 is denoted as B)	–
7.7 nM	CCCN(C)C(=O)[C@@H]1CC(=O)N(C)[C@@H](CC(F)F)C(=O)N[C@@H]([C@@H](C)CC)C(=O)N(C)CC(=O)N(C)[C@H]2C/C=C\CCN(C2=O)[C@@H](Cc2ccc(C(F)(F)F)cc2)C(=O)N(C)CC(=O)N[C@@H](CCc2ccc(C(F)(F)F)c(OC)c2)C(=O)N2C[C@H](OCC)C[C@H]2C(=O)NC2(CCC2)C(=O)N(C)[C@@H](C2CCCC2)C(=O)N1C [PP2013]	–	–	B (a compound having 3 or more and less than 10 is denoted as B)	A (a compound having 10 or more and less than 20 is denoted as A)	–	–	–
